Measured values reported in patent publication US10294202B2, “Pyrrolidinones as herbicides” (FMC Corporation, priority 2013, dated 2019).

Columns and labels:
barnyardgrass [1] = test: Test A pre-/postemergence herbicide test; assay type: in vivo, Echinochloa crus-galli
Method in brief: (§1)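 Seeds sown in loam soil/sand blend received a preemergence directed soil spray of test chemical in non-phytotoxic solvent with surfactant; postemergence plants (2–10 cm, one- to two-leaf stage) were sprayed with the same formulation. After about 10 days in greenhouse, injury was rated visually versus untreated controls, 0 (no effect) to 100 (complete control).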

kochia = test: Test A pre-/postemergence herbicide test; assay type: in vivo, Kochia scoparia; conditions: for Plant response rating, Kochia: 125 g ai/ha; for Kochia plant response rating: 500 g ai/ha
Method in brief: as §1

ragweed = test: Test A pre-/postemergence herbicide test; assay type: in vivo, Ambrosia elatior; conditions: for Plant response rating, Ragweed: 125 g ai/ha; for Ragweed plant response rating: 500 g ai/ha
Method in brief: as §1

ryegrass, Italian = test: Test A pre-/postemergence herbicide test; assay type: in vivo, Lolium multiflorum; conditions: for Plant response rating, Ryegrass, Italian: 125 g ai/ha; for Ryegrass, Italian plant response rating: 500 g ai/ha
Method in brief: as §1

giant foxtail = test: Test A pre-/postemergence herbicide test; assay type: in vivo, Setaria faberii
Method in brief: as §1

pigweed = test: Test A pre-/postemergence herbicide test; assay type: in vivo, Amaranthus retroflexus; conditions: for Plant response rating, Pigweed: 125 g ai/ha; for Pigweed plant response rating: 500 g ai/ha
Method in brief: as §1

wheat = test: Test A pre-/postemergence herbicide test; assay type: in vivo, Triticum aestivum; conditions: Postemergence, 125 g ai/ha; visual rating on 0 to 100 scale (0 no effect, 100 complete control), approx. 10 days
Method in brief: as §1

corn = test: Test A pre-/postemergence herbicide test; assay type: in vivo, Zea mays; conditions: Postemergence
Method in brief: as §1

blackgrass = test: Test A postemergence herbicide test; assay type: in vivo, Alopecurus myosuroides
Method in brief: (§2)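 Young potted plants in a loam–sand mix, one- to two-leaf stage and 2–10 cm tall, receive the test chemical postemergence and stay in a greenhouse for approximately 10 days. Injury is then judged by eye against untreated plants, scored 0 (none) to 100 (complete control).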

galium = test: Test A postemergence herbicide test; assay type: in vivo, Galium aparine; conditions: 125 g ai/ha, visual rating on 0 to 100 scale (0 no effect, 100 complete control), approx. 10 days
Method in brief: as §2

rice = test: Test B flooded paddy test; assay type: in vivo, Oryza sativa; conditions: 500 g ai/ha, Flood; scale of 0 to 100 where 0 is no effect and 100 is complete control
Method in brief: (§3)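 First, plants reach the 2-leaf stage; next, pots are flooded to 3 cm and compound is delivered into the water; finally, after 13 to 15 greenhouse days at constant depth, injury is graded visually from 0 to 100 against controls.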

sedge, umbrella = test: Test B flooded paddy test; assay type: in vivo, Cyperus difformis; conditions: 500 g ai/ha, Flood; scale of 0 to 100 where 0 is no effect and 100 is complete control
Method in brief: as §3

ducksalad = test: Test B flooded paddy test; assay type: in vivo, Heteranthera limosa; conditions: 500 g ai/ha, Flood; scale of 0 to 100 where 0 is no effect and 100 is complete control
Method in brief: as §3

barnyardgrass [2] = test: Test B flooded paddy test; assay type: in vivo, Echinochloa crus-galli; conditions: 500 g ai/ha, Flood; scale of 0 to 100 where 0 is no effect and 100 is complete control
Method in brief: as §3

[3] = Postemergence, 125 g ai/ha, visual rating on 0 to 100 scale (0 no effect, 100 complete control), approx. 10 days
[4] = Postemergence, 500 g ai/ha, 0 to 100 scale (0 no effect, 100 complete control)
[5] = Preemergence, 125 g ai/ha, 0 to 100 scale where 0 is no effect and 100 is complete control
[6] = Preemergence, 500 g ai/ha, visual rating on 0 to 100 scale (0 no effect, 100 complete control)
[7] = Postemergence, visual rating on 0 to 100 scale (0 no effect, 100 complete control), approx. 10 days
[8] = Preemergence, 0 to 100 scale where 0 is no effect and 100 is complete control
[9] = Preemergence, visual rating on 0 to 100 scale (0 no effect, 100 complete control)
[10] = 125 g ai/ha, visual rating on 0 to 100 scale (0 no effect, 100 complete control), approx. 10 days
[11] = 500 g ai/ha, 0 to 100 scale (0 no effect, 100 complete control)

O=C1NCC(c2ccc(Br)c(Br)c2)C1C(=O)Nc1ccc(F)cc1F (stereo not drawn) [Compound 340]
Plant response rating, Barnyardgrass (barnyardgrass [1]; [3]): 30
Plant response rating, Barnyardgrass (barnyardgrass [1]; [4]): 50
Plant response rating, Barnyardgrass (barnyardgrass [1]; [5]): 60
Barnyardgrass plant response rating (barnyardgrass [1]; [6]): 80
Plant response rating, Kochia (kochia; [7]): 0
Plant response rating, Kochia (kochia; [8]): 0
Kochia plant response rating (kochia; [9]): 0
Plant response rating, Ragweed (ragweed; [7]): 0
Plant response rating, Ragweed (ragweed; [8]): 0
Ragweed plant response rating (ragweed; [9]): 0
Plant response rating, Ryegrass, Italian (ryegrass, Italian; [7]): 0
Plant response rating, Ryegrass, Italian (ryegrass, Italian; [8]): 0
Ryegrass, Italian plant response rating (ryegrass, Italian; [9]): 20
Plant response rating, Foxtail, Giant (giant foxtail; [3]): 30
Plant response rating, Foxtail, Giant (giant foxtail; [4]): 90
Plant response rating, Foxtail, Giant (giant foxtail; [5]): 80
Foxtail, Giant plant response rating (giant foxtail; [6]): 90
Plant response rating, Pigweed (pigweed; [7]): 0
Plant response rating, Pigweed (pigweed; [8]): 0
Pigweed plant response rating (pigweed; [9]): 0
Plant response rating, Wheat (wheat): 0
Plant response rating, Corn (corn; [10]): 0
Plant response rating, Corn (corn; [11]): 0
Plant response rating, Blackgrass (blackgrass; [10]): 0
Plant response rating, Blackgrass (blackgrass; [11]): 20
Plant response rating, Galium (galium): 0
Plant response rating, Rice (rice): 0
Plant response rating, Sedge, Umbrella (sedge, umbrella): 0
Plant response rating, Ducksalad (ducksalad): 50
Plant response rating, Barnyardgrass (barnyardgrass [2]): 0

O=C1NCC(c2ccc(Br)c(Br)c2)C1C(=O)Nc1ccc(F)c(F)c1F (stereo not drawn) [Compound 342]
Plant response rating, Barnyardgrass (barnyardgrass [1]; [3]): 30
Plant response rating, Barnyardgrass (barnyardgrass [1]; [4]): 60
Plant response rating, Barnyardgrass (barnyardgrass [1]; [5]): 50
Barnyardgrass plant response rating (barnyardgrass [1]; [6]): 80
Plant response rating, Kochia (kochia; [7]): 20
Plant response rating, Kochia (kochia; [8]): 0
Kochia plant response rating (kochia; [9]): 0
Plant response rating, Ragweed (ragweed; [7]): 0
Plant response rating, Ragweed (ragweed; [8]): 0
Ragweed plant response rating (ragweed; [9]): 0
Plant response rating, Ryegrass, Italian (ryegrass, Italian; [7]): 0
Plant response rating, Ryegrass, Italian (ryegrass, Italian; [8]): 0
Ryegrass, Italian plant response rating (ryegrass, Italian; [9]): 20
Plant response rating, Foxtail, Giant (giant foxtail; [3]): 40
Plant response rating, Foxtail, Giant (giant foxtail; [4]): 50
Plant response rating, Foxtail, Giant (giant foxtail; [5]): 70
Foxtail, Giant plant response rating (giant foxtail; [6]): 90
Plant response rating, Pigweed (pigweed; [7]): 0
Plant response rating, Pigweed (pigweed; [8]): 0
Pigweed plant response rating (pigweed; [9]): 50
Plant response rating, Wheat (wheat): 0
Plant response rating, Corn (corn; [10]): 0
Plant response rating, Corn (corn; [11]): 40
Plant response rating, Blackgrass (blackgrass; [10]): 0
Plant response rating, Blackgrass (blackgrass; [11]): 0
Plant response rating, Galium (galium): 0
Plant response rating, Rice (rice): 0
Plant response rating, Sedge, Umbrella (sedge, umbrella): 0
Plant response rating, Ducksalad (ducksalad): 0
Plant response rating, Barnyardgrass (barnyardgrass [2]): 0

O=C1NCC(c2ccc(Br)c(Br)c2)C1C(=O)Nc1ccccc1Cl (stereo not drawn) [Compound 343]
Plant response rating, Barnyardgrass (barnyardgrass [1]; [3]): 0
Plant response rating, Barnyardgrass (barnyardgrass [1]; [4]): 30
Plant response rating, Barnyardgrass (barnyardgrass [1]; [5]): 20
Barnyardgrass plant response rating (barnyardgrass [1]; [6]): 80
Plant response rating, Kochia (kochia; [7]): 0
Plant response rating, Kochia (kochia; [8]): 0
Kochia plant response rating (kochia; [9]): 0
Plant response rating, Ragweed (ragweed; [7]): 0
Plant response rating, Ragweed (ragweed; [8]): 0
Ragweed plant response rating (ragweed; [9]): 0
Plant response rating, Ryegrass, Italian (ryegrass, Italian; [7]): 0
Plant response rating, Ryegrass, Italian (ryegrass, Italian; [8]): 0
Ryegrass, Italian plant response rating (ryegrass, Italian; [9]): 0
Plant response rating, Foxtail, Giant (giant foxtail; [3]): 30
Plant response rating, Foxtail, Giant (giant foxtail; [4]): 60
Plant response rating, Foxtail, Giant (giant foxtail; [5]): 60
Foxtail, Giant plant response rating (giant foxtail; [6]): 80
Plant response rating, Pigweed (pigweed; [7]): 0
Plant response rating, Pigweed (pigweed; [8]): 0
Pigweed plant response rating (pigweed; [9]): 0
Plant response rating, Wheat (wheat): 0
Plant response rating, Corn (corn; [10]): 0
Plant response rating, Corn (corn; [11]): 0
Plant response rating, Blackgrass (blackgrass; [10]): 0
Plant response rating, Blackgrass (blackgrass; [11]): 0
Plant response rating, Galium (galium): 0
Plant response rating, Rice (rice): 0
Plant response rating, Sedge, Umbrella (sedge, umbrella): 0
Plant response rating, Ducksalad (ducksalad): 0
Plant response rating, Barnyardgrass (barnyardgrass [2]): 0
